Reference: paper PMC4503722, “Novel Phenotypic Outcomes Identified for a Public Collection of Approved Drugs from a Publicly Accessible Panel of Assays” (PLoS ONE, 2015)
Like-named read-outs stand apart in the source and are kept apart here.

Assays:
[1] = molecular target: T1, hKDR (Homo sapiens, UniProt P35968); assay: Cerep LANCE kinase assay hKDR (S1 assay 32); type: biochemical
T1 construct: purchased Cerep (LANCE kinase assay platform, contract assay)

[2] = molecular target: T2, hFLT3 (Homo sapiens, UniProt P36888); assay: Cerep LANCE kinase assay hFLT3 (S1 assay 35); type: biochemical
T2 construct: purchased Cerep (LANCE kinase assay platform, contract assay)
T2 sequence (P36888 27-993): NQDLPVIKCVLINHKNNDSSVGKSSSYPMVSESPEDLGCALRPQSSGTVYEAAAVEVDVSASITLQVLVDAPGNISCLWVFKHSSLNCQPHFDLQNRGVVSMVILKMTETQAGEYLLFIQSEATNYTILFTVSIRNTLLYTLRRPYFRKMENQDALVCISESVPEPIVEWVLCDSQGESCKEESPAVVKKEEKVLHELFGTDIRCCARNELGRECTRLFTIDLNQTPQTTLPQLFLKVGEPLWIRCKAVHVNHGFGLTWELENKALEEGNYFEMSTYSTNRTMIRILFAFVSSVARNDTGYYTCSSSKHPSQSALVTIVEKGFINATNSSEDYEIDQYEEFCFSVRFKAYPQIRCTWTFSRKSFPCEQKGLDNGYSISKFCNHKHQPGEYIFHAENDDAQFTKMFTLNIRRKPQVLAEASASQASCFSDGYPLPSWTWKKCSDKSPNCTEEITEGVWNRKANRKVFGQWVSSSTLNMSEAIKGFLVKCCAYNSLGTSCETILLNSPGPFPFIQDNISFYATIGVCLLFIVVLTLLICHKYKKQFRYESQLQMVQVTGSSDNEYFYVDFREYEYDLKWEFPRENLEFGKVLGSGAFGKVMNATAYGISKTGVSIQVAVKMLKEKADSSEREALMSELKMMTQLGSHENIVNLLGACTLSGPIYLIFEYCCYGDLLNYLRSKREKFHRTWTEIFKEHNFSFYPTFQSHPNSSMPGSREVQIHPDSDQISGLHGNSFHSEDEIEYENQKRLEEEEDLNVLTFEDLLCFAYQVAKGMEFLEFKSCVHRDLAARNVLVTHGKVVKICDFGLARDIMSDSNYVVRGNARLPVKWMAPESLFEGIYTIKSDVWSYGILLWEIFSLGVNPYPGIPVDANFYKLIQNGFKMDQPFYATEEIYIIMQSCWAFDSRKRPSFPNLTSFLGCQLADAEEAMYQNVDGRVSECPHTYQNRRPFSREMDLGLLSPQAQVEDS

[3] = tested on: endothelial tube formation in co-cultures of ECFCs and ADSCs treated with VEGF; assay: cells; type: cell-based, human; conditions: for IC50: read-out: VEGF_ADSC\ECFC Angio CD31 TubeArea summarized IC50
[4] = tested on: HeLa cells; assay: cells; type: cell-based;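 as to Hela CellCycMod PI 4N summarized IC50: value tracks stimulation of 4N DNA content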
[5] = molecular target: T3, hGSK3b (Homo sapiens, UniProt P49841); assay: Cerep LANCE kinase assay hGSK3b (S1 assay 34); type: biochemical
T3 construct: purchased Cerep (LANCE kinase assay platform, contract assay)
T3 sequence (P49841 whole entry): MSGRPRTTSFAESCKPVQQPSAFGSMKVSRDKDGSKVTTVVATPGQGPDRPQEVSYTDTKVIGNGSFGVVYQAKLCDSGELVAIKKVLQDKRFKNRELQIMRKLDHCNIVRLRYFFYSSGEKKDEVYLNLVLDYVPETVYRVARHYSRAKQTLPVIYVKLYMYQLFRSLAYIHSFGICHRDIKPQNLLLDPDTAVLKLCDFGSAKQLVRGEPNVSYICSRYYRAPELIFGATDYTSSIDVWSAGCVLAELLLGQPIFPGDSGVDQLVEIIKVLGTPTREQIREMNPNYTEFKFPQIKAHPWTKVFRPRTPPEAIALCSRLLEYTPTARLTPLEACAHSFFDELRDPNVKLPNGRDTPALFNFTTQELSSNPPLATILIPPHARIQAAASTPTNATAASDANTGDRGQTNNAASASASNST

[6] = molecular target: T4, hJAK2 (Homo sapiens, UniProt O60674); assay: Cerep LANCE kinase assay hJAK2 (S1 assay 33); type: biochemical
T4 construct: purchased Cerep (LANCE kinase assay platform, contract assay)
T4 sequence (O60674 whole entry): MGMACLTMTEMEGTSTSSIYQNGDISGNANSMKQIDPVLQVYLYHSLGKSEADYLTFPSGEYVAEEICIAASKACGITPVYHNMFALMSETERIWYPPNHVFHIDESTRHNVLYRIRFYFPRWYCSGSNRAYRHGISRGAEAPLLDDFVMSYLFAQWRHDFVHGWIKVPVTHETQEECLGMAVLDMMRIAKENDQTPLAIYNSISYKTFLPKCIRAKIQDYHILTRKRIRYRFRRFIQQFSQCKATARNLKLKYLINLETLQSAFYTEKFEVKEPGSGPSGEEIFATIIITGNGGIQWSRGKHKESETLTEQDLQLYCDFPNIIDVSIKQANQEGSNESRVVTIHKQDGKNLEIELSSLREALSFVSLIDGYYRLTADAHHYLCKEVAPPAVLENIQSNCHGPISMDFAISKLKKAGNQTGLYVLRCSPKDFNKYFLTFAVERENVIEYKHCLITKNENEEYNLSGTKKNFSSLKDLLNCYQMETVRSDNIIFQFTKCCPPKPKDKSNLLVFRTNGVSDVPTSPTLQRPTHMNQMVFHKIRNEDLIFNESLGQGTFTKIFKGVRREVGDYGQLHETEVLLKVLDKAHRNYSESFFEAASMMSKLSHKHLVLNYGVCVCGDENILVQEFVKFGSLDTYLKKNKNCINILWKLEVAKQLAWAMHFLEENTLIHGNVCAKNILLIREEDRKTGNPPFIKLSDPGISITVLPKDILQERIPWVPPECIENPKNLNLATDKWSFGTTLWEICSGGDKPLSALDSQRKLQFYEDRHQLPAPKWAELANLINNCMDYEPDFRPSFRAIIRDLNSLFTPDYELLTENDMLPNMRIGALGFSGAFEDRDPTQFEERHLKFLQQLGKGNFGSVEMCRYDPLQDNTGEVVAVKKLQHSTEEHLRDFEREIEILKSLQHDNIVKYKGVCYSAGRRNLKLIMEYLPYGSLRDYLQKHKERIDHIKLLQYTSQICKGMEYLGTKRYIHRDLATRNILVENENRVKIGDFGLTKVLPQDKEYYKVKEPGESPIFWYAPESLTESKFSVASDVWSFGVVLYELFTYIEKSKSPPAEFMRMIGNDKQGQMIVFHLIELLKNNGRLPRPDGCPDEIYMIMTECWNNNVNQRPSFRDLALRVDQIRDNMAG

[7] = tested on: ECFC/ADSC co-culture cell nuclei number; conditions: for IC50: read-out: VEGF_ADSC\ECFC Angio Hoechst NucArea summarized IC50
[8] = molecular target: T5, hp70S6K1 (RPS6KB1) (Homo sapiens, UniProt P23443); assay: Cerep LANCE kinase assay hp70S6K1 (S1 assay 31); type: biochemical
T5 construct: purchased Cerep (LANCE kinase assay platform, contract assay)
T5 sequence (P23443 whole entry): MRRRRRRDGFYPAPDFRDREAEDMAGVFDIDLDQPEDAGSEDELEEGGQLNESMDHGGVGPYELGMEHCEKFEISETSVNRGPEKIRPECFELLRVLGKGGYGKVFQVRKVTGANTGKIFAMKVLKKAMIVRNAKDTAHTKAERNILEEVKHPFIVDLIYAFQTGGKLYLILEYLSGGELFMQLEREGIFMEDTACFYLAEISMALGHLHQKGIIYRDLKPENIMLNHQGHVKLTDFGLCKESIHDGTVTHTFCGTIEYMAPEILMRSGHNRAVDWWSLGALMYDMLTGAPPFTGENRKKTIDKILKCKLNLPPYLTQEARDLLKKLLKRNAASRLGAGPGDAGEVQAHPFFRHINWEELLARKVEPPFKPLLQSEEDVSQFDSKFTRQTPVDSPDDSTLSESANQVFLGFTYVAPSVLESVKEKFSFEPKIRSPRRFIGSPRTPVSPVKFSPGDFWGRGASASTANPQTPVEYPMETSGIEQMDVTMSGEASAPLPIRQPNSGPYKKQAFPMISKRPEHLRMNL

[9] = tested on: HT-29; assay: cells; type: cell-based; conditions: assay number 28; basal; read-out: Basal_Viability ATP HT-29 summarized IC50
[10] = tested on: HCT116; assay: cells; type: cell-based; conditions: read-out: Basal_Viability ATP HCT116 summarized IC50
[11] = tested on: Colo320; assay: cells; type: cell-based; conditions: read-out: Basal_Viability ATP Colo 320 summarized IC50
[12] = tested on: RKO; assay: cells; type: cell-based; conditions: assay number 29; basal; read-out: Basal_Viability ATP RKO summarized IC50
[13] = tested on: HCT116 cells treated with a GSK3β inhibitor; assay: cells; type: cell-based; conditions: read-out: GSK3b inh pretreated_Viability ATP HCT116 summarized IC50
[14] = tested on: SNU-C1; assay: cells; type: cell-based; conditions: assay number 30; basal; read-out: Basal_Viability ATP SNU-C1 summarized IC50
[15] = tested on: DLD-1; assay: cells; type: cell-based; conditions: read-out: Basal_Viability ATP DLD-1 summarized IC50
[16] = tested on: SW480; assay: cells; type: cell-based; conditions: assay number 24; basal; read-out: Basal_Viability ATP SW480 summarized IC50
[17] = assay number 35, read-out: hFLT3 LANCE summarized IC50
[18] = assay number 14, 2N, read-out: Hela CellCycMod PI 2N summarized IC50
[19] = assay number 15, S phase, read-out: Hela CellCycMod PI S Phase summarized IC50
[20] = assay number 16, 4N, read-out: Hela CellCycMod PI 4N summarized IC50
[21] = assay number 17, MI, read-out: Hela CellCycMod PI MI summarized IC50
[22] = assay number 18, cell number, read-out: Hela CellCycMod PI Cell Number summarized IC50
[23] = assay number 34, read-out: hGSK3b LANCE summarized IC50
[24] = assay number 33, read-out: hJAK2 LANCE summarized IC50
[25] = assay number 31, read-out: hp70S6K1 LANCE summarized IC50

T1 sequence (P35968 20-1356): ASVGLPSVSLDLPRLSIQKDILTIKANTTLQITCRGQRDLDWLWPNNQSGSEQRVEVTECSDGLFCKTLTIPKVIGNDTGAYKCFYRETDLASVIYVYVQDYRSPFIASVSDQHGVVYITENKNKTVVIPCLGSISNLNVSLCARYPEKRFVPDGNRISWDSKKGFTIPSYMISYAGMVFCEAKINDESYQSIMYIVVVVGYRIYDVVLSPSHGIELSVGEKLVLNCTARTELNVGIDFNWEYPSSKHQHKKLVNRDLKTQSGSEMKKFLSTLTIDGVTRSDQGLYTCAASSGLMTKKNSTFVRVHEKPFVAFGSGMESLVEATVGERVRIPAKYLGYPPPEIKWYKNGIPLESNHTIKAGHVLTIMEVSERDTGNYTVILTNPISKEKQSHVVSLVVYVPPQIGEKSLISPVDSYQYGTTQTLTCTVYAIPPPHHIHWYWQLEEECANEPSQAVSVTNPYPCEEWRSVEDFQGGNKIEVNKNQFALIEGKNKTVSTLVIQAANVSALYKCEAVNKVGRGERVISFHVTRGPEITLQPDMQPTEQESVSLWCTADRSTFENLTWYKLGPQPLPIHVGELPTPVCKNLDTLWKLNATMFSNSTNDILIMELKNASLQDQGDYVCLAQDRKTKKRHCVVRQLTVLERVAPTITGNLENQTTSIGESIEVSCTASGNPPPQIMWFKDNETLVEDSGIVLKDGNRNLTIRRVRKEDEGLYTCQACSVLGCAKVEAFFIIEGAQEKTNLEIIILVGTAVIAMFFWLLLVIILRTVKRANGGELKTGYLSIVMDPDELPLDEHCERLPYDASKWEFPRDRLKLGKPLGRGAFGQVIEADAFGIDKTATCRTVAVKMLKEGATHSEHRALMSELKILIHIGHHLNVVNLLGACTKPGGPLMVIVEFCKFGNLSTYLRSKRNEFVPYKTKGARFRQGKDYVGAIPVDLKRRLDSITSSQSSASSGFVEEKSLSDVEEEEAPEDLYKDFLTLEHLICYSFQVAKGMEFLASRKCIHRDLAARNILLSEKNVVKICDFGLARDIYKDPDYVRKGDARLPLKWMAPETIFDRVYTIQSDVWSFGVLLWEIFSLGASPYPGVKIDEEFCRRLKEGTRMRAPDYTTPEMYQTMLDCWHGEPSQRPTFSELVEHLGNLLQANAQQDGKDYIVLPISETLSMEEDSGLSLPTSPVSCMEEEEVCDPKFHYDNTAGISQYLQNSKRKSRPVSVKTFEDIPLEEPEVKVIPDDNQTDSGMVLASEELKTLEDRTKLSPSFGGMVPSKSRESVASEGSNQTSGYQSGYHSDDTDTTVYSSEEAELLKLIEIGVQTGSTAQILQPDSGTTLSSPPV

Row | SMILES | IC50 [2, 17] | IC50 [3] | IC50 [4, 18] | IC50 [4, 19] | IC50 [4, 20] | IC50 [4, 21] | IC50 [4, 22] | IC50 [5, 23] | IC50 [6, 24] | IC50 [7] | IC50 [8, 25] | hKDR LANCE IC50/EC50 ([1]; assay number 32) | hFLT3 LANCE IC50/EC50 ([2]; assay number 35) | VEGF_ADSC\ECFC Angio CD31 TubeArea IC50/EC50 [3] | Hela CellCycMod PI 2N IC50/EC50 ([4]; assay number 14, 2N) | Hela CellCycMod PI 4N IC50/EC50 ([4]; assay number 16, 4N) | Hela CellCycMod PI MI IC50/EC50 ([4]; assay number 17, MI) | Hela CellCycMod PI Cell Number IC50/EC50 ([4]; assay number 18, cell number) | hGSK3b LANCE IC50/EC50 ([5]; assay number 34) | hJAK2 LANCE IC50/EC50 ([6]; assay number 33) | also measured
1 | COc1cc([C@@H]2c3cc4c(cc3[C@H](O)[C@H]3COC(=O)[C@H]23)OCO4)cc(OC)c1OC [NCGC00022001-13] | > 20 µM | 0.0081 µM | 0.0089 µM | > 10 µM | 0.0077 µM | 0.0112 µM | 0.0048 µM | > 20 µM | > 20 µM | > 10 µM | > 20 µM |  |  |  |  |  |  |  |  |  | IC50 ([1]; assay number 32, read-out: hKDR LANCE summarized IC50): > 20 µM
2 | CCC(C)n1ncn(-c2ccc(N3CCN(c4ccc(OC[C@H]5CO[C@](Cn6cncn6)(c6ccc(Cl)cc6Cl)O5)cc4)CC3)cc2)c1=O (some centres unmarked) [NCGC00274068-01] |  |  |  |  |  |  |  |  |  |  |  | > 20 µM | > 20 µM | 1.5488 µM | > 10 µM | > 10 µM | > 10 µM | > 10 µM | > 20 µM | > 20 µM | VEGF_ADSC\ECFC Angio Hoechst NucArea IC50/EC50 [7]: > 10 µM; hp70S6K1 LANCE IC50/EC50 ([8]; assay number 31): > 20 µM
3 | Oc1c(Cl)cc(Cl)cc1Sc1cc(Cl)cc(Cl)c1O [NCGC00018163-10] | > 20 µM | 1.79 µM | > 10 µM | > 10 µM | > 10 µM | > 10 µM | > 10 µM | 6.57 µM | > 20 µM | > 10 µM | > 20 µM |  |  |  |  |  |  |  |  |  | IC50 [9]: 0.996 µM; IC50 ([10]; assay number 25, basal): 0.001 µM; IC50 ([11]; assay number 27, basal): 0.015 µM; IC50 [12]: 0.001 µM; IC50 ([13]; assay number 26, GSK3b inhibitor pretreated): 0.001 µM; IC50 [14]: 0.00867 µM; IC50 ([15]; assay number 23, basal): 0.001 µM; IC50 [16]: 0.001 µM
4 | COc1cc(-c2ccc(=O)[nH]n2)ccc1OC(F)F [NCGC00016106-13] |  |  |  |  |  |  |  |  |  |  |  | > 20 µM | > 20 µM | 1.2205 µM | > 10 µM | > 10 µM | > 10 µM | 0.0092 µM | > 20 µM | > 20 µM | Hela CellCycMod PI S Phase IC50/EC50 ([4]; assay number 15, S phase): > 10 µM; VEGF_ADSC\ECFC Angio Hoechst NucArea IC50/EC50 [7]: > 10 µM; hp70S6K1 LANCE IC50/EC50 ([8]; assay number 31): > 20 µM
5 | COc1cc2c(c(OC)c1OC)-c1ccc(OC)c(=O)cc1[C@@H](NC(C)=O)CC2 [colchicine] |  |  |  |  |  |  |  |  |  |  |  |  |  |  |  |  |  |  |  |  | IC50 [1]: > 20 µM; IC50 [2]: > 20 µM; IC50 [5]: > 20 µM; IC50 [6]: > 20 µM; IC50 [8]: > 20 µM
6 | O=C(Nc1ccc([N+](=O)[O-])cc1Cl)c1cc(Cl)ccc1O [NCGC00015735-11] |  | 0.112 µM |  |  |  |  |  |  |  | 5.81 µM |  |  |  |  |  |  |  |  |  |  | IC50 ([1]; read-out: hKDR LANCE summarized IC50): > 20 µM; IC50 [10]: 0.00144 µM; IC50 [11]: 0.00826 µM; IC50 ([2]; read-out: hFLT3 LANCE summarized IC50): > 20 µM; IC50 [13]: 0.00295 µM; IC50 ([4]; read-out: Hela CellCycMod PI 2N summarized IC50): > 10 µM; IC50 ([4]; read-out: Hela CellCycMod PI 4N summarized IC50): > 10 µM; IC50 ([4]; read-out: Hela CellCycMod PI Cell Number summarized IC50): 0.144 µM; IC50 ([4]; read-out: Hela CellCycMod PI MI summarized IC50): > 10 µM; IC50 ([4]; read-out: Hela CellCycMod PI S Phase summarized IC50): > 10 µM; IC50 ([5]; read-out: hGSK3b LANCE summarized IC50): > 20 µM; IC50 [15]: 0.00349 µM; IC50 ([8]; read-out: hp70S6K1 LANCE summarized IC50): > 20 µM
